Patent US10111874B2, “Combination therapies for treatment of cancer” (Araxes Pharma LLC, priority 2014, dated 2018)

Legend:
[1] = tested on: SW1573 cells; experiment: Western blots of KRAS signaling nodes and cleaved PARP in SW1573 cells; assay type: cell-based
Excerpt: (§1) Western blots were used to analyze downstream KRAS signaling nodes (AKT, ERK, RSK, S6) and a marker of apoptosis (cleaved PARP). […] Taxol (paclitaxel) was used as a positive control.

[2] = biological target: T1, KRAS G12C 1-169, his-tagged protein, GDP-loaded (Homo sapiens, UniProt P01116, G12C); experiment: Biochemical assay: covalent binding to KRAS G12C analyzed by mass spectrometry; details: compounds 247-342, measured at 30 min; listed as 272
T1 construct: KRAS G12C 1-169, his-tagged protein, GDP-loaded

[3] = tested on: mutant cell lines (H358, NCI-H23, SW1463, H1792, Calu-1, SW1573); experiment: Western blots, KRAS G12C inhibitor with SRC inhibitors in multiple cell lines; assay type: cell-based; details: I-272 1 μM
Excerpt: (§2) Western blots were used to analyze downstream KRAS signaling nodes (AKT, ERK, RSK, S6) and a marker of apoptosis (cleaved PARP).
As a control, a non-G12C cell line (A549) was subjected to the same single agent and combination treatments. The KRAS G12C inhibitors show no single agent or additive/synergistic effects in this line.

[4] = tested on: mutant cell lines (H358, H1792, MiaPaca2); experiment: Western blots, KRAS G12C inhibitor with JAK inhibitor momelotinib in multiple cell lines; assay type: cell-based
Procedure: Western blots were used to analyze downstream KRAS signaling nodes (AKT, ERK, S6), a transcription factor (STAT3), and a marker of apoptosis (cleaved PARP). Treatment of mutant cell lines (H358, H1792, MiaPaca2) or a control cell line (A549) was tested with an exemplary KRAS G12C inhibitor (compound I-272, 0.3 and 1 μM) alone or in combination with momelotinib (JAK inhibitor, 5 μM). […] Specifically, when compound I-272 is used in combination with momelotinib (JAK inhibitor) PARP is detected in H358, H1792, and MiaPaca2.

[5] = tested on: Calu-1 cells; experiment: Western blots of KRAS signaling nodes and cleaved PARP in Calu-1 cells; assay type: cell-based; details: I-272 30, 100, 300, and 1000 nM, Dasatinib 150 nM
Excerpt: as §2

[6] = tested on: mutant cells (H358, Calu-1, MiaPaca2, NCI-H23, SW1463, H1792); experiment: Western blots / dot blot arrays of signaling pathways maintained or hyper-activated following KRAS G12C inhibition; assay type: cell-based; details: 48 hours, versus untreated cell lines
Excerpt: FIG. 1 provides western blots for identifying synergistic pathways for targeting in combination with KRAS G12C inhibition. Shown are dot blot arrays for detection of phosphorylated receptor tyrosine kinases (p-RTK) and phosphorylated signaling kinases (ie. p-ERK, or p-AKT) for indicated cell lines treated with indicated K-Ras G12C inhibitor. Notable signaling targets and their respective pathways that are induced or maintained following treatment are summarized for various cell lines.
Western blots were used to analyze downstream KRAS signaling nodes (AKT, ERK, S6, EGFR/HER2, SRC, MET) and a transcription factor (STAT3). […] Sustained or induced pathways were assessed by comparing untreated cell lines with those treated by compound I-272.

[7] = tested on: mutant cell lines (NCI-H23, SW1573); experiment: Western blots, KRAS G12C inhibitor with ruxolitinib or momelotinib; assay type: cell-based; details: I-272 1 μM
Procedure: Western blots were used to analyze downstream KRAS signaling nodes (AKT, ERK, S6), transcription factors (STAT3, IκBα), protein marker (TBK1) and a marker of apoptosis (cleaved PARP). Treatment of mutant cell lines (NCI-H23, SW1573) were tested with an exemplary KRAS G12C inhibitor (compound I-272, 1 μM) alone or in combination with one of ruxolitinib (JAK 1/2 inhibitor, 1 and 5 μM) or momelotinib (JAK1/2, TBK1, IKKe inhibitor, 1 and 5 μM). […] Further, there is synergistic p-S6 inhibition in each of the combinations. Synergistic apoptosis strongly occurred when TBK1 and non-canonical NFκB signaling is inhibited.

[8] = tested on: KRAS G12C mutant cells lines (H358, H2122, H2030, H1792, Calu-1, MiaPaca2, and NCI-H23); experiment: Caspase activity luminescence assay (Capase-Glo) with compound II-64 alone or in combination; assay type: cell-based; details: alone
Procedure: Caspase activity was measured using a standard caspase activity luminescence assay (Capase-Glo, Promega). Taxol (paclitaxel) was used as a positive control.

[9] = tested on: H358 cells (KRAS G12C); experiment: Western blots of downstream KRAS signaling nodes and apoptosis markers in H358 cells; assay type: cell-based; details: for apoptosis based on cleaved PARP levels: H358 cells, erlotinib 5 μM
Procedure: FIG. 2 depicts western blot analysis of downstream targets of K-Ras signaling. […] Paclitaxel was used as a positive control. The western blots were probed with antibodies for p-AKT, p-ERK, total ERK, p-RSK, p-S6 and cleaved PARP. Cleaved PARP is indicative of apoptosis. B) A549 cells that express the G12S isoform of K-Ras were used a control for K-Ras G12C inhibitor specificity. A549 cells were treated as in A).
as §2, §1
Western blots were used to analyze downstream KRAS signaling nodes (AKT, ERK, RSK, S6) and a marker of apoptosis (cleaved PARP). […] Caspase activity was measured using a standard caspase activity luminescence assay (Capase-Glo, Promega).

[10] = tested on: H358 cells; experiment: Flow cytometry, cell cycle progression and apoptosis (sub-diploid cells); assay type: cell-based; details: single agents
Procedure: B) The average apoptosis response of NCI-H358, NCI-H1792, NCI-H2122, and SW1573 cell lines generated by flow cytometry as described in A).
(§3) Apoptosis was measured via flow cytometry. Gated populations=% of subdiploid apoptotic cells.
as §3
FIG. 7 depicts apoptosis in NCI-H358 cells treated with II-64 (10 μM), SN38 (5 nM), or a combination treatment (II-64+SN38). […] Apoptosis was measured via flow cytometry. Gated populations=% of subdiploid apoptotic cells.
Flow cytometry was used to evaluate KRAS G12C inhibitor combination treatments.
Next, flow cytometry was used to evaluate a KRAS G12C inhibitor in combination with the chemotherapeutic agents paclitaxel or docetaxel.

[11] = I-272 0.3 and 1 μM, alone, 24 hours

T1 sequence (P01116 1-169 isoform P01116-2 G12C): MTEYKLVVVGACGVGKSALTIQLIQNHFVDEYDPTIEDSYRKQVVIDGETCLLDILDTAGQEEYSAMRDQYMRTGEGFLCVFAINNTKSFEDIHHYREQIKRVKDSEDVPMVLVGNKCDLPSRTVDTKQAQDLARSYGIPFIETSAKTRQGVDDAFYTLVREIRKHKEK

## Cc1nc(NC(=O)N2CCC[C@H]2C(N)=O)sc1-c1ccnc(C(C)(C)C(F)(F)F)c1 [BYL719, Alpelisib]
[1]
  apoptosis based on cleaved PARP levels: does not induce robust apoptosis

## C=CC(=O)N1CCN(c2ncnc3c(F)c(-c4cc(O)cc5ccccc45)c(Cl)cc23)CC1 [Compound I-272, 1-(4-(6-chloro-8-fluoro-7-(3-hydroxynaphthalen-1-yl)quinazolin-4-yl)piperazin-1-yl)prop-2-en-1-one]
[2]
  Binding %: ++++ (++++indicates binding activity greater than 75%)
[3]; alone, 24 hours
  inhibition of p-ERK: clear and, in some cases (H358, SW1463, Calu-1), nearly complete inhibition of p-ERK
[3]; dasatinib 100 nM, 24 hours
  inhibition of p-S6: inhibition of p-S6 in H358, SW1463, H1792, and Calu-1 cell lines
[3]; dasatinib 100 nM, Saracatinib 2 μM
  apoptosis based on cleaved PARP levels: minimal cleaved PARP
[4]; [11]
  inhibition of S6: some to nearly complete inhibition of S6 (in H358)
  inhibition of p-ANK: some inhibition of p-ANK (in H358)
  inhibition of p-ERK: some and nearly complete inhibition of p-ERK (in H1792 and H358 respectfully)
[4]; I-272 0.3 and 1 μM, momelotinib 5 μM
  induction of apoptosis (cleaved PARP): some induction of apoptosis as observed by the presence of cleaved PARP (in H358 and MiaPaca2)
[4]; I-272 alone, also control cell line A549
  induction of STAT3: induces STAT3 in certain cell lines (slight in H358 and H1792, strong in MiaPaca2 and A549)
[5]; 24 hours
  inhibition of downstream KRAS signaling nodes (Western blot): clear and, at higher concentrations, nearly complete inhibition of p-ERK and p-RSK
[5]
  apoptosis based on cleaved PARP levels: minimal cleaved PARP
[6]
  sustained or induced pathways following KRAS G12C inhibition: sustained or induced pathways suggesting targeting with RTK, PI3K, mTOR, SRC, and JAK/STAT inhibitors
[7]; alone, 24 hours
  inhibition of p-ERK: clear and nearly complete inhibition of p-ERK
  inhibition of p-S6 and p-AKT: inhibition of p-S6 and p-AKT in NCI-H23
[7]; ruxolitinib or momelotinib 1 and 5 μM
  apoptosis based on cleaved PARP levels: minimal cleaved PARP

## C#Cc1cccc(Nc2ncnc3cc(OCCOC)c(OCCOC)cc23)c1 [erlotinib, reference compound]
[8]
  caspase activity: did not induce significant caspase activity
[9]; H358 cells (FIG. 9, left panel)
  G1 arrest and induction of apoptosis: G1 arrest with low to modest induction of apoptosis
[9]; H358 cells (FIG. 11)
  apoptosis based on c-caspase 3 levels: does not induce robust apoptosis
[9]; 24 hours, G12C inhibitors 10 μM, GDC0941 2 μM (FIG. 2)
  apoptosis based on cleaved PARP levels: does not induce robust apoptosis
[9]; I-74 15 μM, PD0325901 100 nM, GDC0941 1 μM
  apoptosis based on cleaved PARP levels: does not induce robust apoptosis
[10]
  cell cycle arrest and induction of apoptosis (flow cytometry): G1 arrest with low to modest induction of apoptosis
